Experiments:
Format in all cases: biochemical
JNK1 = JNK1 (Homo sapiens, UniProt P45983); test: JNK1 SPA assay; conditions: phosphorylation of GST-c-Jun, 2 μM ATP
Description: (§1) JNK1, JNK2, JNK3—SPA Assay
(§2) • 1. Compound is dissolved in DMSO to a convenient concentration and this is diluted in 10% DMSO to a five times concentrate of the desired starting concentration (frequently 1: 100). • 2. 10 μl of 500 mM EDTA is added to alternative wells of the Opti-plate row, which will receive kinase reaction plus DMSO. This creates the negative control. • 3. For the JNK2 and JNK3 assay, compounds are prepared in six 2-fold dilutions with water and each concentration is tested in duplicate. For the JNK1 assay compounds are prepared in four 5-fold dilutions with water which are tested in triplicate. Controls are treated identically. • 4. 20 μl per well of each compound concentration is transferred to an Opti-plate, in duplicate. • 5. 30 μl (JNK2/3 SPA) or 50 μl (JNK1 SPA) of substrate solution (25 mM HEPES pH 7.5, 10 mM magnesium acetate with 3.33 μM ATP (JNK2/3) or 2 μM ATP (JNK1), approximately 7.5 kBq [γ-^33P] ATP, GST-c-Jun, in water) is added to each well. • 6. 50 μl (JNK2/3 SPA) or 30 gl (JNK1 SPA) of kinase solution (JNK in 25 mM HEPES pH 7.5, 10 mM Mg Acetate) is added to each well.
(§3) • 7. The plate is incubated for 30 minutes at room temperature. • 8. 100 μl of bead/stop solution is added to each well (5 mg/ml glutathione-PVT-SPA beads, 40 mM ATP in PBS). • 9. Plates are sealed and incubated for 30 minutes at room temperature, centrifuged for 10 minutes at 2500 g and counted. • 10. The IC50 values are calculated as the concentration of the compound being tested at which the phosphorylation of c-Jun is decreased to 50% of the control value.

JNK3 = JNK3 (Homo sapiens, UniProt P53779); test: JNK3 SPA assay; conditions: phosphorylation of GST-c-Jun, 3.33 μM ATP
Sequence of JNK3 (P53779 whole entry): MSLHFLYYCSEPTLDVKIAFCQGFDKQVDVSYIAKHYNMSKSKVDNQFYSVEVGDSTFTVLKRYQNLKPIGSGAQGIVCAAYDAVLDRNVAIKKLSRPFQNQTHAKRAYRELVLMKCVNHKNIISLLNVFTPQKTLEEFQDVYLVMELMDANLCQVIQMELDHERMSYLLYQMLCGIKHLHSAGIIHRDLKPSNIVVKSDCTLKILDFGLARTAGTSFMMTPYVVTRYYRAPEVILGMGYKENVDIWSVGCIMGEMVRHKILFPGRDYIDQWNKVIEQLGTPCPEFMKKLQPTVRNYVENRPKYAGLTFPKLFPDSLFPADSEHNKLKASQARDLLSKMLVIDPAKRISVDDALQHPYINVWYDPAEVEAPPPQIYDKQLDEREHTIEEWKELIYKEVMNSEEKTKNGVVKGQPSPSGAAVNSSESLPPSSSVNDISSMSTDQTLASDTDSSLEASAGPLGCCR
Description: as §1, §2, §3

JNK2 = JNK2 (Homo sapiens, UniProt P45984); test: JNK2 SPA assay; conditions: phosphorylation of GST-c-Jun, 3.33 μM ATP
Sequence of JNK2 (P45984 whole entry): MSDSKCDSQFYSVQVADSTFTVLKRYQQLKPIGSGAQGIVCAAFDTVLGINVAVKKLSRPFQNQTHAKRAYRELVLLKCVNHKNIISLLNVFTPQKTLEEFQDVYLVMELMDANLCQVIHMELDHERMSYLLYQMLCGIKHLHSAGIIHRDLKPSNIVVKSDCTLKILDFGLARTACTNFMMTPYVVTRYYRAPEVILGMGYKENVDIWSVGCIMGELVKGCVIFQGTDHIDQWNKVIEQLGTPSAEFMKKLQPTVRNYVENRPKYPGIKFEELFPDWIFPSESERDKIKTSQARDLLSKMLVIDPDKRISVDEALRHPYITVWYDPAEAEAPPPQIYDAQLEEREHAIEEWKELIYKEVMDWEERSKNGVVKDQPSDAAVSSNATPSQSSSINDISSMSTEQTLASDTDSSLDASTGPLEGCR
Description: as §1, §2, §3

p38 MAP kinase = biological target: T1, p38 MAP kinase (Homo sapiens, UniProt Q16539); test: p38 ELISA; conditions: phosphorylation of GST-ATF2, 50 μM ATP
T1 construct: purchased Upstate
T1 sequence (Q16539 whole entry): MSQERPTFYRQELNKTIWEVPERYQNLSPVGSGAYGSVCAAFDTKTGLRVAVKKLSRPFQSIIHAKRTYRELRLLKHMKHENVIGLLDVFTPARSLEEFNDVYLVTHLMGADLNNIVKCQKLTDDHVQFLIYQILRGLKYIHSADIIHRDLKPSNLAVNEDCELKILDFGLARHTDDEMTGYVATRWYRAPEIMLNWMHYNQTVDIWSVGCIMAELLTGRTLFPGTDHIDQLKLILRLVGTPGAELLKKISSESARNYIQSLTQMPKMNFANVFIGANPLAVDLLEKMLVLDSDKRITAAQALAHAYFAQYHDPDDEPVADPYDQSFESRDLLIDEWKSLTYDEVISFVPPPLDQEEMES
Description: Active p38 kinase (100 ng; Upstate) was added to 2 μg GST-ATF2 substrate (NEB) in 250 mM Hepes pH 7.5/100 mM MgAc/50 μM ATP (final) in the presence or absence of compounds in 50 μl. The mixture was incubated at 30° C. for 1 hour, and then diluted with 200 μl PBS-Tween (0.05%). From this, duplicate volumes of 100 μl were added to a Reacti-Bind glutathione coated plate (Pierce) and incubated for 1 hour. After washing 3 times with PBS-Tween (0.05%), rabbit anti-phospho-ATF2 (Thr71) antibody (NEB) was added at 1:500, and incubated for another hour at room temperature. After 3 additional washes with PBS-Tween (0.05%), 100 μl of anti-rabbit IgG alkaline phosphatase-conjugated secondary antibody (Sigma) was added at 1:1000, the reaction was incubated for a further hour, washed 3 times, and then phosphatase substrate (Sigma) was added (100 μl per well; 3 tablets in 5 ml water). After incubation in the dark at 37° C. for 1 hour, the reaction mixture was transferred to a clear 96 well plate, and the absorbance at 405 nm was read. The IC50 values are calculated as the concentration of the compound being tested at which the phosphorylation of ATF2 is decreased to 50% of the control value.

Sequence of JNK1 (P45983 whole entry): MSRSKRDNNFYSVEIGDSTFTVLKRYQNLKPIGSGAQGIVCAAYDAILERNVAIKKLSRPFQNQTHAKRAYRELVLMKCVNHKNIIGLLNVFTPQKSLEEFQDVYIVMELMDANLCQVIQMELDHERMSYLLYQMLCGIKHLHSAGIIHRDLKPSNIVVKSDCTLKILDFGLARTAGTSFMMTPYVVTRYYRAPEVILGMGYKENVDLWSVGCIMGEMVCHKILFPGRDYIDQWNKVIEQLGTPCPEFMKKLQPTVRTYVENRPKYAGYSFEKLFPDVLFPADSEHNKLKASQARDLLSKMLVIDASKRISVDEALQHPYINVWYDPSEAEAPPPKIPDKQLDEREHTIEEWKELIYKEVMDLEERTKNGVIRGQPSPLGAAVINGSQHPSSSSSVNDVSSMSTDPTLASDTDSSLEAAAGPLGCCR

Row | SMILES | IC50 (JNK1) [nM] | IC50 (JNK3) [nM] | IC50 (JNK2) [nM] | IC50 (p38 MAP kinase) [nM]
1 | CCCNc1nccc(-c2c(-c3ccc(F)cc3)nc3n2[C@H](COc2ccc4ccccc4n2)CC3)n1 | 183 | 88 | 52 | 270
2 | CCNc1nccc(-c2c(-c3ccc(F)cc3)nc3n2[C@H](COc2ccc4cccc([N+](=O)[O-])c4n2)CC3)n1 | 137 | 86 | 38 | –
3 | CCCNc1nccc(-c2c(-c3ccc(F)cc3)nc3n2[C@@H](COc2ccc4ccccc4n2)CC3)n1 | – | 295 | – | –
4 | CCNc1nccc(-c2c(-c3ccc(F)cc3)nc3n2[C@H](COc2ncccn2)CC3)n1 | 313 | 29 | 125 | 185
5 | CCNc1nccc(-c2c(-c3ccc(F)cc3)nc3n2[C@H](Cn2cccc2)CC3)n1 | 27 | 14 | 13 | 59
6 | CCNc1nccc(-c2c(-c3ccc(F)cc3)nc3n2[C@H](CN2C(=O)CCC2=O)CC3)n1 | – | 17 | – | –
7 | CCCNc1nccc(-c2c(-c3ccc(F)cc3)nc3n2[C@H](Cn2ccc4ccccc42)CC3)n1 | 636 | 91 | 250 | 619
8 | CCNc1nccc(-c2c(-c3ccc(F)cc3)nc3n2[C@H](Cn2ccc4cccc(F)c42)CC3)n1 | 125 | 61 | 125 | 696
9 | CCCNc1nccc(-c2c(-c3ccc(F)cc3)nc3n2[C@@H](Cn2ccc4ccccc42)CC3)n1 | – | 150 | – | –

Continued, values first:

Row | IC50 (JNK1) [nM] | IC50 (JNK3) [nM] | IC50 (JNK2) [nM] | IC50 (p38 MAP kinase) [nM] | SMILES
10 | 22 | 7 | – | – | Fc1ccc(-c2nc3n(c2-c2ccnc(NC4CCC4)n2)[C@H](Cn2ccnc2)CC3)cc1
11 | 92 | 8 | – | – | Fc1ccc(SC[C@@H]2CCc3nc(-c4ccc(F)cc4)c(-c4ccnc(NC5CCC5)n4)n32)cc1
12 | 249 | 71 | 114 | – | Fc1ccc(-c2nc3n(c2-c2ccnc(NC4CCC4)n2)[C@H](COc2ccnc4ccccc24)CC3)cc1
13 | 60 | 6 | – | – | O=C1CCC(=O)N1C[C@@H]1CCc2nc(-c3ccc(F)cc3)c(-c3ccnc(NC4CCC4)n3)n21
14 | – | 23 | – | – | COc1ccc(COC[C@@H]2CCc3nc(-c4ccc(F)cc4)c(-c4ccnc(NC5CCC5)c4)n32)cc1
15 | 248 | 53 | – | – | Fc1ccc(-c2nc3n(c2-c2ccnc(NC4CCC4)n2)[C@H](/C=C/c2cccs2)CC3)cc1
16 | 78 | 25 | 30 | – | Cc1cc(OC[C@@H]2CCc3nc(-c4ccc(F)cc4)c(-c4ccnc(NC5CCC5)n4)n32)c2ccccc2n1
17 | 94 | 30 | – | 148 | COc1ccc(CSC[C@@H]2CCc3nc(-c4ccc(F)cc4)c(-c4ccnc(NC5CCC5)n4)n32)cc1
18 | 412 | 54 | 83 | – | O=C(NC[C@@H]1CCc2nc(-c3ccc(F)cc3)c(-c3ccnc(NC4CCC4)n3)n21)c1ccccc1
19 | – | 10 | – | – | Fc1ccc(-c2nc3n(c2-c2ccnc(NC4CCC4)n2)[C@H](CC2CCCC2)CC3)cc1
20 | – | 301 | – | – | COc1ccc(COC[C@H]2CCc3nc(-c4ccc(F)cc4)c(-c4ccnc(NC5CCC5)c4)n32)cc1
21 | 524 | 38 | 126 | – | Fc1ccc(-c2nc3n(c2-c2ccnc(NC4CCC4)n2)[C@H](CNc2ccccn2)CC3)cc1

Source: patent US7314940B2, “Jun kinase inhibitors” (Eisai Co., Ltd., priority 2001, dated 2008)
